In PubChem BioAssay AID623931 (Vanderbilt Specialized Chemistry Center, 2012) one finds inhibition data, which are given here for one compound.

In assay [1] the target is 5-hydroxytryptamine receptor 2B (Homo sapiens) (UniProt P41595). Description: PubChem AID 623931. The conditions noted are these: Ricerca radioligand binding panel, % inhibition; at 10 µM; stronger effect = higher value.
The next assay can be described thus: PubChem AID 623931. The conditions noted are these: Ricerca radioligand binding panel, % inhibition, at 10 µM, stronger effect = higher value.

Turning to `COc1ccc(C#Cc2ccc(C(=O)N3CCC[C@@H](CO)C3)cc2)cc1`, the inhibition – broadly, the percentage by which the read-out fell short of the control – in assay [1] stood at 71%; in “PubChem AID 623931” (GABA-A muscimol site binding) it was 21%; in “PubChem AID 623931” (K-ATP channel binding), 21%; in the assay “PubChem AID 623931” (adenosine A3 receptor binding), 44%; in “PubChem AID 623931” (dopamine D3 receptor binding), 19%; in the assay “PubChem AID 623931” (dopamine transporter DAT binding), 88%. Besides, the inhibition came out at 13% in “PubChem AID 623931” (hERG potassium channel binding); 35% in “PubChem AID 623931” (imidazoline I2 binding); 28% in “PubChem AID 623931” (norepinephrine transporter NET binding); 45% in the assay “PubChem AID 623931” (prostanoid EP4 receptor binding); 23% in the assay “PubChem AID 623931” (purinergic P2Y binding); 50% in “PubChem AID 623931” (serotonin transporter SERT binding). Besides, the inhibition in “PubChem AID 623931” (sigma 1 receptor binding) was found to be 37%.
